Measurements from patent US10898502B2, “Treatment of diseases using a combination of ultraviolet blood irradiation and antibiotics” (priority 2014, dated 2021).

Experiments:
[1] = Adverse reactions seen in the treated patients; conditions: Example 2 patient; medication discontinued
[2] = human, in vivo
[3] = tested on: MAP; conditions: cited from earlier work
[4] = tested on: cathelicidin; conditions: cited from earlier work
[5] = tested on: M. tuberculosis; conditions: cited from earlier work

NCC1(CC(=O)O)CCCCC1 [Gabapentin]
Tolerability at the lowest recommended dose [1]: very dizzy

Cn1cnc([N+](=O)[O-])c1Sc1ncnc2nc[nH]c12 [azathioprine]
Liver enzymes leading to discontinuation [2]: elevated ALT and AST

Vitamin A
Growth of MAP in vitro [3]: inhibit the growth of MAP

Vitamin D
Intracellular production of cathelicidin [4]: induces
Proliferation of M. tuberculosis in macrophages [5]: reduce the proliferation
Growth of MAP in vitro [3]: inhibit the growth of MAP
